In US20200188361A1, “USE OF MITOCHONDRIAL ACTIVITY INHIBITORS FOR THE TREATMENT OF POOR PROGNOSIS ACUTE MYELOID LEUKEMIA” (UNIVERSITE DE MONTREAL, priority 2016, published 2020):
Like-named read-outs stand apart in the source and are kept apart here.

Legend:
[1] = test system: HOX-med/low AML patient cells; assay: Primary chemical screen of 60 compounds, cell dose-response viability assay (CellTiterGlo, 6 days); type: cell-based, human; settings: read-out: MEAN EC50 HOX-med/low
Protocol: (§1) frozen AML mono-nucleated cells were thawed at 37° C. in Iscove's modified Dulbecco's medium (IMDM) containing 20% FBS and DNase I (100 μg/mL).
(§2) All powders were dissolved in DMSO and diluted in culture medium immediately before use. Final DMSO concentration in all conditions was 0.1%. The 60 compounds were purchased from various suppliers including Santa Cruz, Selleckchem, Calbiochem, AdooQ Bioscience, Cayman chemical and Synkinase.
(§3) Patient cells were seeded in 384-well plates at a density of 5,000 cells in 50 μL per well. In the initial screen, compounds were added to seeded cells in serial dilutions (10 dilutions, 1:3, starting from 10 μM or 20 μM), in duplicates. Cells treated with 0.1% DMSO without additional compound were used as negative controls. Viable cell counts per well were evaluated after 6 days of culture using the CellTiterGlo® assay (Promega®) according to the manufacturer's instruction.
(§4) Using high expression of HOXA9 and HOXA10 as a surrogate for the detection of HOX-network-high patient samples, the survival of HOX-high versus HOX-med/low specimens contacted with 60 inhibitors targeting receptor tyrosine kinases (RTK), members of the RAS and PI3K pathways, was assessed (FIG. 2A, Table 4).

[2] = test system: HOX-high AML patient cells; assay: as above; type: cell-based, human; settings: for EC50: read-out: MEAN EC50 HOX-high
Protocol: as §1, §2, §3, §4

[3] = Homo sapiens, 144 h, primary screen, mean over HOX-med/low patient specimens, 6 days culture, top concentration 10 μM or 20 μM
[4] = Homo sapiens, 144 h, primary screen, mean over HOX-high patient specimens, 6 days culture, top concentration 10 μM or 20 μM
[5] = ratio of mean EC50 HOX-high to mean EC50 HOX-med/low
[6] = primary screen, mean over HOX-med/low patient specimens, 6 days culture, top concentration 10 μM or 20 μM
[7] = primary screen, mean over HOX-high patient specimens, 6 days culture, top concentration 10 μM or 20 μM

| SMILES | EC50 [1, 3] | EC50 [2, 4] | FOLD CHANGE High/Med-low [2, 5] | EC50 [1, 6] | EC50 [2, 7] | EC50 [1] | FOLD CHANGE High/Med-low [2] | EC50 [2] |
| --- | --- | --- | --- | --- | --- | --- | --- | --- |
| O=c1cc(N2CCNCC2)oc2c(-c3ccccc3)cccc12 [LY303511] | > 10 µM | > 10 µM |  |  |  |  |  |  |
| CO[C@H]1C[C@@H]2CC[C@@H](C)[C@@](O)(O2)C(=O)C(=O)N2CCCC[C@H]2C(=O)O[C@H]([C@H](C)C[C@@H]2CC[C@@H](O)[C@H](OC)C2)CC(=O)[C@H](C)/C=C(\C)[C@@H](O)[C@@H](OC)C(=O)[C@H](C)C[C@H](C)/C=C/C=C/C=C/1C [Rapamycin] | 0.951 µM | 1.89 µM | 2.0 |  |  |  |  |  |
| Nc1[nH]nc2nnc(-c3c(-c4ccccc4)nn4ccccc34)cc12 [ERK Inhibitor II FR180204] |  |  | 1.0 | > 10 µM | > 10 µM |  |  |  |
| NC1(c2ccc(-c3nc4ccn5c(=O)[nH]nc5c4cc3-c3ccccc3)cc2)CCC1 [MK2206] | 1.04 µM | 2.28 µM | 2.2 |  |  |  |  |  |
| Cn1cncc1[C@@](N)(c1ccc(Cl)cc1)c1ccc2c(c1)c(-c1cccc(Cl)c1)cc(=O)n2C [Tipifarnib] | 0.158 µM | 0.109 µM | 0.7 |  |  |  |  |  |
| COc1ccc(Cl)c(Nc2nc3ccccc3nc2NS(=O)(=O)c2cccc(NC(=O)C(C)(C)N)c2)c1 [SAR245408 XL147] | > 10 µM | > 10 µM |  |  |  |  |  |  |
| Cc1ccc(Nc2c(C(N)=O)cnc3cc(-c4ccc(S(C)(=O)=O)cc4)ccc23)cc1C [cFMS Receptor Inhibitor III] |  |  | 1.1 | 7.97 µM | 8.86 µM |  |  |  |
| CC(C)(C)c1cc(NC(=O)Nc2ccc(-c3cn4c(n3)sc3cc(OCCN5CCOCC5)ccc34)cc2)no1 [Quizartinib] | 0.52 µM | 0.23 µM | 0.4 |  |  |  |  |  |
| Cn1cnc2c(F)c(Nc3ccc(Br)cc3Cl)c(C(=O)NOCCO)cc21 [Selumetinib AZD6244., Selumetinib] | 1.38 µM | 1.24 µM | 0.9 |  |  |  |  |  |
| COc1cc2nccc(Oc3ccc(NC(=O)NC4CC4)c(Cl)c3)c2cc1C(N)=O [E7080 Lenvatinib., Lenvatinib] | 3.34 µM | 7.29 µM | 2.2 |  |  |  |  |  |
| C[S+]([O-])c1ccc(-c2nc(-c3ccc(F)cc3)c(-c3ccncc3)[nH]2)cc1 (stereo not shown) [SB.203580] |  |  |  |  |  | > 10 µM | 1.0 | > 10 µM |
| NC(=O)c1ccc(N(C(N)=O)c2c(F)cccc2F)nc1-c1ccc(F)cc1F [VX702] | > 10 µM | 9.55 µM | 1.0 |  |  |  |  |  |
| Nc1nc(Nc2ccc3c(c2)CCC(N2CCCC2)CC3)nn1-c1cc2c(nn1)-c1ccccc1CCC2 (stereo not shown) [R428] |  |  | 0.8 | 0.592 µM | 0.487 µM |  |  |  |
| CS(=O)(=O)N1CCN(Cc2cc3nc(-c4cccc5[nH]ncc45)nc(N4CCOCC4)c3s2)CC1 [GDC0941] | 0.603 µM | 1.11 µM | 1.8 |  |  |  |  |  |
| COc1cc2nccc(Oc3ccc(NC(=O)Nc4ccc(F)cc4F)c(F)c3)c2cc1OC [Ki8751] |  |  | 1.1 | 0.768 µM | 0.844 µM |  |  |  |
| CC[C@H](Nc1ncnc2[nH]cnc12)c1nc2cccc(F)c2c(=O)n1-c1ccccc1 [GS1101 idelalisib CAL101, idelalisib] | 5.67 µM | 7.47 µM | 1.3 |  |  |  |  |  |
| Cc1nc(NC(=O)N2CCC[C@H]2C(N)=O)sc1-c1ccnc(C(C)(C)C(F)(F)F)c1 [BYL719] | 4.75 µM | 7.52 µM | 1.6 |  |  |  |  |  |
| CC(C)c1cc(/C=C(\C#N)C(=O)NCCCc2ccccc2)cc(C(C)C)c1O [SU1498] |  |  | 1.0 | 9.67 µM | 9.86 µM |  |  |  |

| SMILES | EC50 [1, 3] | EC50 [2, 4] | FOLD CHANGE High/Med-low [2, 5] | EC50 [1, 6] | EC50 [2, 7] | EC50 [1] | FOLD CHANGE High/Med-low [2] | EC50 [2] |
| --- | --- | --- | --- | --- | --- | --- | --- | --- |
| CN1CCC(c2[nH]nc(-c3ccc(Cl)cc3)c2-c2ccncn2)CC1 [p38 MAP Kinase Inhibitor V] |  |  | 0.8 | 8.79 µM | 7.31 µM |  |  |  |
| CCN(CC)CCCCNc1ncc2cc(-c3cc(OC)cc(OC)c3)c(NC(=O)NC(C)(C)C)nc2n1 [PD173074] |  |  | 1.0 | 5.2 µM | 4.95 µM |  |  |  |
| COc1ccc2cc(-c3nc(-c4ccc([S+](C)[O-])cc4)[nH]c3-c3ccncc3)ccc2c1 (stereo not shown) [Tie2 Kinase Inhibitor] |  |  | 1.0 | > 10 µM | > 10 µM |  |  |  |
| Cc1ccc(NC(=O)c2ccc(CN3CCN(C)CC3)cc2)cc1Nc1nc(-c2cccnc2)cs1 [Masitinib] | 4.57 µM | 7.01 µM | 1.5 |  |  |  |  |  |
| CN(C)CCOc1ccc(-c2nc(-c3ccncc3)c(-c3ccc4c(c3)CC/C4=N\O)[nH]2)cc1 [SB590885] | 3.88 µM | 5.88 µM | 1.5 |  |  |  |  |  |
| C#Cc1cccc(Nc2ncnc3cc(OCCOC)c(OCCOC)cc23)c1 [Erlotinib] | 9.14 µM | 8.66 µM | 0.9 |  |  |  |  |  |
| CNC(=O)c1cccc(-c2ccc3c(N4CCOC[C@@H]4C)nc(N4CCOC[C@@H]4C)nc3n2)c1 [AZD2014, 3-(2,4-bis((S)-3-methylmorpholino)pyrido[2,3-d]pyrimidin-7-yl)-N-methylbenzamide] | 0.217 µM | 0.782 µM | 3.6 |  |  |  |  |  |
| COc1ccc(-c2ccc3c(N4CCOC[C@@H]4C)nc(N4CCOC[C@@H]4C)nc3n2)cc1CO [AZD8055, (5-(2,4-bis((S)-3-methylmorpholino)pyrido[2,3-d]pyrimidin-7-yl)-2-methoxyphenyl)methanol] | 0.0692 µM | 0.324 µM | 4.7 |  |  |  |  |  |
| Cc1ccc(NC(=O)c2cccc(N(C)C)c2)cc1NC(=O)c1ccc(O)cc1 [ZM336372] |  |  | 1.1 | 8.88 µM | > 10 µM |  |  |  |
| c1cc(CN2CCCNCCNCCCNCC2)ccc1CN1CCCNCCNCCCNCC1 [AMD3100] | > 10 µM | 9.59 µM | 1.0 |  |  |  |  |  |
| COc1cccc(-c2cc(=O)c3ccccc3o2)c1N [PD98059] |  |  | 1.0 | > 10 µM |  |  |  |  |
| COc1cc2ncnc(Nc3ccc(F)c(Cl)c3)c2cc1OCCCN1CCOCC1 [Gefitinib] |  |  | 0.9 |  |  |  |  |  |
| Nc1cccc2c1CN(C1CCC(=O)NC1=O)C2=O (stereo not shown) [Lenalidomide] | 9.91 µM | 7.31 µM | 0.7 |  |  |  |  |  |
| Cc1cn(-c2cc(NC(=O)c3ccc(C)c(Nc4nccc(-c5cccnc5)n4)c3)cc(C(F)(F)F)c2)cn1 [Nilotinib] | 3.81 µM | 3.92 µM | 1.0 |  |  |  |  |  |
| C[C@]1(O)C[C@@H](c2nc(-c3ccc4ccc(-c5ccccc5)nc4c3)c3c(N)nccn32)C1 [OS1906 Linsitinib., Linsitinib] | 3.94 µM | 4.25 µM | 1.1 |  |  |  |  |  |
| CNc1cc2c(Nc3cccc(Br)c3)ncnc2cn1 [PD158780] |  |  | 1.0 | 7.71 µM | 7.47 µM |  |  |  |
| NC(=O)N1CCC(CC(=O)N2CCC([C@H]3c4ncc(Br)cc4CCc4cc(Cl)cc(Br)c43)CC2)CC1 [Lonafarnib] | 3.67 µM | 2.49 µM | 0.7 |  |  |  |  |  |
| O=C(NOCC1CC1)c1ccc(F)c(F)c1Nc1ccc(I)cc1Cl [CI1040 PD.184352.] | 2.77 µM | 2.44 µM | 0.9 |  |  |  |  |  |
